The test system of the experiment is patients with type II diabetes. The experiment is described as follows: Clinical study on the combination of HMS5552 and metformin hydrochloride: blood glucose after the meal. The class given is in vivo, human. The following applies: 13 type II diabetes patients; oral; metformin hydrochloride 500 mg (day 3), 500 mg + HMS5552 50 mg (day 8), HMS5552 50 mg (day 13); meal 30 minutes after administration.

Structures can show the parent of a compound that is named as a salt.

Method: 13 patients with type II diabetes were enrolled, who have been given a stable dose of metformin hydrochloride at 1000 mg/day for at least 14 days at the time of enrollment. On the 1st and 2nd day of the study, 500 mg of metformin hydrochloride was given orally daily both in the morning and in the evening; on the 3rd day, 500 mg of metformin hydrochloride was given once in the morning; on each day of the 4th to 7th day, 500 mg of metformin hydrochloride and 50 mg of HMS5552 were given daily both in the morning and in the evening; on the 8th day, 500 mg of metformin hydrochloride and 50 mg of HMS5552 were given once in the morning; on each day of 9th to 12th day, 50 mg of HMS5552 was given orally daily both in the morning and in the evening; and on the 13th day, 50 mg of HMS5552 was given once in the morning. Meals were taken 30 minutes after each administration of the test drugs.
Plasma samples were collected after administration on the 3rd, 8th and 13th day, and the blood glucose concentrations were analyzed.

`CC(C)C[C@@H](C(=O)Nc1ccn(C[C@@H](O)CO)n1)N1CC(Oc2ccccc2Cl)=CC1=O` [HMS5552, (S)-2-[4-(2-chloro-phenoxy)-2-oxo-2,5-dihydro-pyrrol-1-yl]-4-methyl-pentanoic acid [1-((R)-2,3-dihydroxy-propyl)-1H-pyrazol-3-yl]-amide]: the “area under the curve for blood glucose between 0 and 4 hours after the meal (AUECO-4h)” value came to 72.96 mg·h/dL.

For the molecule `CN(C)C(=N)N=C(N)N` [metformin, metformin hydrochloride], the “area under the curve for blood glucose between 0 and 4 hours after the meal (AUECO-4h)” value is 110.2 mg·h/dL.

Values taken from patent publication US12318366B2, “Pharmaceutical combination and composition, and combination preparation containing glucokinase activator and biguanide hypoglycemic drug as well as preparation method and use thereof” (HUA Medicine (Shanghai) Ltd., priority 2018, dated 2025).
